According to publication PMC5584254, “Identification of novel small molecule Beclin 1 mimetics activating autophagy” (Oncotarget, 2017):
Counter-ions that a name gives are not always drawn. Like-named read-outs stand apart in the source and are kept apart here.

Key:
Bcl-xL-Beclin 1 complex [1] = biological target: T1, Bcl-xL-Beclin 1 complex (Homo sapiens, UniProt Q07817); assay: FP-based high-throughput screening, primary screen; format: binding; conditions: first screen; 40 μM compound, 2.5 μM Bcl-xL, 400 nM 20-mer
T1 construct: made in house
Excerpt: Next, we optimized the FP competitive binding assay in a 384-well microplate format and carried out a small-scale HTS using a small library, which contains 6580 compounds from Prestwick, Microsource and our in-house CMLD library. Then, the FP assay was optimized and applied in screening the larger Chembridge library consisting of 43736 compounds. HTS cascades are shown in Supplementary Figure 1A–1B. […] All chemical structures can be found on the PubChem website (http://pubchem.ncbi.nlm.nih.gov/).
(§1) Then the plates were read by Envision (Perkin Elmer, Waltham, MA). […] The hits were selected from library stocks and reconfirmed in a concentration response FP assay (6 doses ranging from 5 μM to 160 μM or 8 doses ranging from 0.5 μM to 60 μM).

Bcl-xL-Beclin 1 complex [2] = biological target: T1, Bcl-xL-Beclin 1 complex; assay: Concentration response FP reconfirmation of HTS hits; format: binding; conditions: for inhibition at 5 µM: read-out: Dose-response (% Inhibition) 5 μM; for inhibition at 10 µM: read-out: Dose-response (% Inhibition) 10 μM; for inhibition at 20 µM: read-out: Dose-response (% Inhibition) 20 μM; for inhibition at 40 µM: read-out: Dose-response (% Inhibition) 40 μM; for inhibition at 80 µM: read-out: Dose-response (% Inhibition) 80 μM; for inhibition at 160 µM: read-out: Dose-response (% Inhibition) 160 μM
Description: as §1

T1 sequence (Q07817 whole entry, one chain of several): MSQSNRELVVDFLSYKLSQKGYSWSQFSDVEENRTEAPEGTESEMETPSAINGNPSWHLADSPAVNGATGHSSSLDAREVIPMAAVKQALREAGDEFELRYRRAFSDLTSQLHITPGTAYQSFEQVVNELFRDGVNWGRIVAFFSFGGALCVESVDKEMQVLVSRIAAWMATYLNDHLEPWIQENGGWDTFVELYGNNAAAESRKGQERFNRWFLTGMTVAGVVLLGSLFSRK

| SMILES | Primary Screen mP (Bcl-xL-Beclin 1 complex [1]) [mP] | inhibition at 40 µM (Bcl-xL-Beclin 1 complex [1]) [%] | inhibition at 5 µM (Bcl-xL-Beclin 1 complex [2]) [%] | inhibition at 10 µM (Bcl-xL-Beclin 1 complex [2]) [%] | inhibition at 20 µM (Bcl-xL-Beclin 1 complex [2]) [%] | inhibition at 40 µM (Bcl-xL-Beclin 1 complex [2]) [%] | inhibition at 80 µM (Bcl-xL-Beclin 1 complex [2]) [%] | inhibition at 160 µM (Bcl-xL-Beclin 1 complex [2]) [%] | inhibition at 5 µM (Bcl-xL-Beclin 1 complex [2]; 5 μM, hits of first screen) [%] | inhibition at 10 µM (Bcl-xL-Beclin 1 complex [2]; 10 μM, hits of first screen) [%] | inhibition at 20 µM (Bcl-xL-Beclin 1 complex [2]; 20 μM, hits of first screen) [%] | inhibition at 40 µM (Bcl-xL-Beclin 1 complex [2]; 40 μM, hits of first screen) [%] | inhibition at 80 µM (Bcl-xL-Beclin 1 complex [2]; 80 μM, hits of first screen) [%] | inhibition at 160 µM (Bcl-xL-Beclin 1 complex [2]; 160 μM, hits of first screen) [%] | also measured |
| --- | --- | --- | --- | --- | --- | --- | --- | --- | --- | --- | --- | --- | --- | --- | --- |
| C[n+]1c2cc(N)ccc2cc2ccc(N)cc21.[Cl-] [Compound A26, ACRIFLAVINIUM HYDROCHLORIDE] | -3.2 | – | – | – | – | – | – | – | – | – | – | – | – | – | Primary Screen % Inhibition (Bcl-xL-Beclin 1 complex [1]): 102.40%; Dose-response (% Inhibition) 5 μM (Bcl-xL-Beclin 1 complex [2]; 5 μM, hits of first screen): 102.5%; Dose-response (% Inhibition) 10 μM (Bcl-xL-Beclin 1 complex [2]; 10 μM, hits of first screen): 102.5%; Dose-response (% Inhibition) 20 μM (Bcl-xL-Beclin 1 complex [2]; 20 μM, hits of first screen): 102.5%; Dose-response (% Inhibition) 40 μM (Bcl-xL-Beclin 1 complex [2]; 40 μM, hits of first screen): 102.5%; Dose-response (% Inhibition) 80 μM (Bcl-xL-Beclin 1 complex [2]; 80 μM, hits of first screen): 102.0%; Dose-response (% Inhibition) 160 μM (Bcl-xL-Beclin 1 complex [2]; 160 μM, hits of first screen): 102.4% |
| O=C1C(Cl)=C(Cl)C(=O)C(Cl)=C1Cl [Compound A27, CHLORANIL] | 140.9 | 27.8 | -3 | 19.4 | 22.6 | 23.4 | 28.5 | 35.9 | – | – | – | – | – | – | – |
| CC1=NCCc2c1[nH]c1cc(O)ccc21 [Compound A28, HARMALOL HYDROCHLORIDE] | 56.2 | 60 | – | – | – | – | – | – | 19.2 | 31.2 | 41.6 | 56.8 | 73 | 86.2 | – |
| Cc1cc2nc3c(=O)[nH]c(=O)nc-3n(C[C@H](O)[C@H](O)[C@H](O)CO)c2cc1C [Compound A31, RIBOFLAVIN] | -3.2 | 102 | – | – | – | – | – | – | 67.6 | 77.7 | 103 | 99.7 | 102 | 103 | – |
| CCN(CC)CCNC(=O)COc1ccc(OC)cc1.Cl [Compound A32, MEFEXAMIDE HYDROCHLORIDE] | 119.7 | – | – | – | – | – | – | – | – | – | – | – | – | – | Primary Screen % Inhibition (Bcl-xL-Beclin 1 complex [1]): 14.40%; Dose-response (% Inhibition) 5 μM (Bcl-xL-Beclin 1 complex [2]; 5 μM, hits of first screen): -1.5%; Dose-response (% Inhibition) 10 μM (Bcl-xL-Beclin 1 complex [2]; 10 μM, hits of first screen): 2.6%; Dose-response (% Inhibition) 20 μM (Bcl-xL-Beclin 1 complex [2]; 20 μM, hits of first screen): 4.3%; Dose-response (% Inhibition) 40 μM (Bcl-xL-Beclin 1 complex [2]; 40 μM, hits of first screen): 11.2%; Dose-response (% Inhibition) 80 μM (Bcl-xL-Beclin 1 complex [2]; 80 μM, hits of first screen): 23.1%; Dose-response (% Inhibition) 160 μM (Bcl-xL-Beclin 1 complex [2]; 160 μM, hits of first screen): 32.1% |
| O=C(O)c1cc(O)c2c(c1)[C@H]([C@H]1c3cc(C(=O)O)cc(O)c3C(=O)c3c(O[C@@H]4O[C@H](CO)[C@@H](O)[C@H](O)[C@H]4O)cccc31)c1cccc(O[C@@H]3O[C@H](CO)[C@@H](O)[C@H](O)[C@H]3O)c1C2=O [Compound A34, SENNOSIDE A] | 119.9 | 12.8 | – | – | – | – | – | – | 0.5 | 4.7 | 6.3 | 12 | 22.5 | 20.9 | – |
| O=C(O)c1cc(O)c2c(c1)[C@@H]([C@H]1c3cc(C(=O)O)cc(O)c3C(=O)c3c(O[C@@H]4O[C@H](CO)[C@@H](O)[C@H](O)[C@H]4O)cccc31)c1cccc(O[C@@H]3O[C@H](CO)[C@@H](O)[C@H](O)[C@H]3O)c1C2=O [Compound A35, SENNOSIDE B] | 120.4 | 14.3 | – | – | – | – | – | – | 2.7 | 4.1 | 5.8 | 13.6 | 21.1 | 19.9 | – |
| COc1cccc2c1C(=O)c1c(O)c3c(c(O)c1C2=O)C[C@@](O)(C(C)=O)C[C@@H]3O[C@H]1C[C@H](N)[C@H](O)[C@H](C)O1 [Compound A36, DAUNORUBICIN] | 75.5 | 45.8 | 22.8 | 33.4 | 41 | 44.4 | 51.9 | 56 | – | – | – | – | – | – | – |
| Cc1cc2c(C(C)C)c(O)c(O)c(C=O)c2c(O)c1-c1c(C)cc2c(C(C)C)c(O)c(O)c(C=O)c2c1O [Compound A38, GOSSYPOL] | 125.4 | 10.8 | 2.7 | 4.8 | 5.4 | 8.4 | 14.7 | 18.3 | – | – | – | – | – | – | – |
| O=C(Nc1ccccc1)c1ccccc1O [Compound A39, SALICYLANILIDE] | -3.2 | 102 | 103 | 103 | 103 | 99.7 | 102 | 103 | – | – | – | – | – | – | – |
| CC[N+](C)(CC)CCC[n+]1c(-c2ccccc2)c2cc(N)ccc2c2ccc(N)cc21.[I-].[I-] [Compound A40, PROPIDIUM IODIDE] | 123.6 | – | – | – | – | – | – | – | – | – | – | – | – | – | Primary Screen % Inhibition (Bcl-xL-Beclin 1 complex [1]): 7.08%; Dose-response (% Inhibition) 5 μM (Bcl-xL-Beclin 1 complex [2]; 5 μM, hits of first screen): 0.5%; Dose-response (% Inhibition) 10 μM (Bcl-xL-Beclin 1 complex [2]; 10 μM, hits of first screen): -0.2%; Dose-response (% Inhibition) 20 μM (Bcl-xL-Beclin 1 complex [2]; 20 μM, hits of first screen): 1.2%; Dose-response (% Inhibition) 40 μM (Bcl-xL-Beclin 1 complex [2]; 40 μM, hits of first screen): 4.4%; Dose-response (% Inhibition) 80 μM (Bcl-xL-Beclin 1 complex [2]; 80 μM, hits of first screen): 12.1%; Dose-response (% Inhibition) 160 μM (Bcl-xL-Beclin 1 complex [2]; 160 μM, hits of first screen): 18.3% |
